How the values were obtained:
Test in all cases: selective drug sensitivity score (sDSS, relative to normal bone marrow) (sDSS (score)); higher = more potent and effective on the cell line relative to normal bone marrow cells
Conditions in all cases: 72 h
[1] = test system: ALL-SIL
[2] = test system: TMD5
[3] = test system: 380
[4] = test system: MOLT-16
[5] = test system: COG-LL-394h
[6] = test system: MOLT-14
[7] = test system: TANOUE
[8] = test system: MHH-CALL-2
[9] = test system: COG-LL-332h
[10] = test system: COG-LL-319h
[11] = test system: REH
[12] = test system: P30-OHKUBO
[13] = test system: MHH-CALL-3
[14] = test system: SEM cells
[15] = test system: KASUMI-10
[16] = test system: MN-60
[17] = test system: MHH-CALL-4
[18] = test system: PEER
[19] = test system: CCRF-CEM
[20] = test system: RCH-ACV
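Note: ALL cell lines in 384-well plates, five doses spanning 10,000-fold, each plate scaled between vehicle and 100 µmol/L benzalkonium chloride controls, sDSS an adapted area-under-curve metric.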

Structure (SMILES)	selective drug sensitivity score [1]	selective drug sensitivity score [2]	selective drug sensitivity score [3]	selective drug sensitivity score [4]	selective drug sensitivity score [5]	selective drug sensitivity score [6]	selective drug sensitivity score [7]	selective drug sensitivity score [8]	selective drug sensitivity score [9]	selective drug sensitivity score [10]	selective drug sensitivity score [11]	selective drug sensitivity score [12]	selective drug sensitivity score [13]	selective drug sensitivity score [14]	selective drug sensitivity score [15]	selective drug sensitivity score [16]	selective drug sensitivity score [17]	selective drug sensitivity score [18]	selective drug sensitivity score [19]	selective drug sensitivity score [20]
CC(C)Oc1ccc(-c2nn([C@@H](C)c3oc4ccc(F)cc4c(=O)c3-c3cccc(F)c3)c3ncnc(N)c23)cc1F [TGR-1202] (top concentration 2500 nM)	-0.36	-2.56	-2.56	-2.46	-1.46	-2.56	-2.56	-0.06	-1.56	1.64	-1.76	5.14	-2.56	-2.56	-2.56	-2.56	-0.06	-1.86	-1.16	9.14
CN(C(=O)c1ccc(F)cc1C(F)(F)F)C1CCN(c2nnc(-c3ccnn3C)c3ccccc23)CC1 [Taladegib] (top concentration 10000 nM)	0.08	-1.02	4.08	3.88	2.08	-1.12	4.98	3.18	1.08	5.78	3.58	-0.02	-0.32	-1.12	-1.12	-1.12	-1.12	1.88	-0.82	-0.52
COc1cc(Nc2ncc(F)c(Nc3ccc4c(n3)NC(=O)C(C)(C)O4)n2)cc(OC)c1OC [Tamatinib] (top concentration 10000 nM)	-5.42	-5.42	-5.42	-5.42	-5.42	-4.62	-5.32	-4.92	-0.22	-0.72	-2.22	4.38	-5.42	12	8.58	-5.42	-4.62	-5.42	-5.42	14
Nc1cc(F)ccc1NC(=O)c1ccc(CNC(=O)/C=C/c2cccnc2)cc1 [Tucidinostat] (top concentration 10000 nM)	10.4	4.14	12.5	4.54	-3.86	3.94	-8.66	9.14	-2.76	12	3.34	4.04	11.4	10.3	3.04	1.54	9.94	5.44	2.44	11.1
CN[C@@H]1C[C@H]2O[C@@](C)([C@@H]1OC)n1c3ccccc3c3c4c(c5c6ccccc6n2c5c31)C(=O)N[C@H]4O [UCN-01] (top concentration 10000 nM)	3.14	-0.36	13.5	8.64	-1.46	6.14	-9.56	7.94	1.44	6.64	5.24	7.74	6.24	7.74	6.94	0.94	8.14	-0.66	6.04	18
CC(C)Nc1cc(-c2c[nH]c(C(=O)N[C@H](CO)c3cccc(Cl)c3)c2)c(Cl)cn1 [Ulixertinib] (top concentration 10000 nM)	3.02	2.12	-4.38	2.42	-0.18	6.12	-4.38	2.72	1.92	-0.78	-1.08	-0.18	-4.38	1.62	-3.08	-4.38	2.22	3.62	2.82	2.82
Cn1ncc(Cl)c1-c1cc(C(=O)N[C@H](CN)Cc2ccc(F)c(F)c2)oc1Cl [Uprosertib] (top concentration 10000 nM)	1.5	1.2	0.6	19.1	-0.6	1.1	-1.2	2.1	5.7	5.3	9.6	6.5	-1.4	4.5	-1.4	-1.4	4.6	8.5	10.4	8.3
C=CC(=O)N1CC/C(=C\c2ccc(F)c([N+](=O)[O-])c2)C(=O)/C(=C/c2ccc(F)c([N+](=O)[O-])c2)C1 [VLX1570] (top concentration 10000 nM)	-3.62	-2.62	6.88	-1.32	-1.92	-0.92	-6.32	-3.32	-0.52	2.08	1.98	1.88	5.98	3.38	1.58	-5.32	-1.22	-4.72	1.58	1.58
C[C@@H]1COC(Nc2ccc3ncnc(Nc4ccc(OCc5nccs5)c(Cl)c4)c3c2)=N1 [Varlitinib] (top concentration 10000 nM)	2.92	3.02	18.5	-0.18	-0.18	-0.18	-0.18	5.02	2.12	18.8	7.62	4.32	-0.18	2.92	-0.18	0.02	0.82	0.12	-0.18	5.92
CNC(=O)c1cccc(-c2ccc3c(N4CCOC[C@@H]4C)nc(N4CCOC[C@@H]4C)nc3n2)c1 [Vistusertib] (top concentration 10000 nM)	8.52	3.02	17.1	5.62	-1.28	2.12	-2.78	9.52	4.62	10.6	9.32	11.7	2.12	4.82	0.32	2.72	5.82	5.22	8.22	24.5

— the supplement of paper PMC8967900
